“And” between values parts separate entries of the source, which are not always exact repeats. Identical values can stand only once. “Also recorded” adds a separate entry of the source. Marks after values point to notes of the source that are not given here.
What was measured:
[1] = Pharmacokinetics of total radioactivity (TRA) in plasma by liquid scintillation counting; type: in vivo, human; conditions: for Tmax: single oral 600 mg/150 μCi [14C]IBI351, fasted, median (min, max)
Procedure: (§1) This was a single-center, single-dose, open-trial study involving six healthy Chinese male subjects. They received a single dose of 600 mg/150 μCi [^14C]IBI351 on day 1 after fasting for at least 10 h. Blood, urine, and fecal samples were collected at specified time points or intervals within 15 days (0–336 h) following the administration of [^14C]IBI351.
(§2) The endpoint of blood analysis was a plasma radioactivity concentration less than 1/8 of the baseline plasma value. Venous blood samples were collected from the six subjects (01101–01106) at the following time points (in hours): −1 (pre-dosing), 0.5, 1, 2, 4, 8, 12, 24, and at 24-h intervals (post-dosing). Whole blood aliquots were collected for radioactivity measurement, and blood samples were centrifuged (1500 [± 10] g, 4 ℃, 10 min) for metabolite identification. All samples were stored at −10–−30 ℃ until analysis.
Blood, plasma, urine, and fecal samples were analyzed for TRA using the Tri-Carb model 3110 TR liquid scintillation counter (PerkinElmer, Waltham, MA, USA). Blood samples were divided into two parallel portions (0.5 g) and completely burned by OX-501 oxidizer (R.J. Harvey, Tappan, NY, USA). Finally, the samples were analyzed by liquid scintillation counting. Plasma (0.5 g) and urine (1 g) samples were directly analyzed by liquid scintillation counting. Fecal samples were first homogenized with isopropanol/water (50/50, v/v). The excretion of radioactivity in the urine and feces, referring to the cumulative recovery of total radioactive material in each time period, was defined as the sum of the percentage of TRA in the urine and feces relative to the administered dose. The TRA in each sample during a time period and the percentage of TRA related to the administered dose (% of dose) were calculated using the following formula: % of dosage = (TRA detected in the sample/radioactive dosage) × 100%.
(§3) Statistical analysis of TRA in the whole blood and plasma, concentrations of IBI351, corresponding pharmacokinetic parameters, and urine and fecal excretion data was performed using Microsoft Excel 2010. The pharmacokinetic parameters were calculated using Pkanalix 2021R1 (Lixoft, Antony, France). The drug-time curve was plotted using WinNonlin® (version 8.3, Certara). Data were analyzed using the SAS 9.4 software and presented as mean ± standard deviation.

[2] = Safety analysis: adverse events and laboratory tests; type: in vivo, human; conditions: for Urea: reference range 3.1–8.0; for Urea / TBIL / ALT / GGT / AST / Cr: listed as [14C]IBI351; for TBIL: reference range 5.1–19.0; for ALT: reference range 9.0–50.0; for GGT: reference range 10.0–60.0; for AST: reference range 15.0–40.0; for Cr: reference range 57.0–97.0; for Safety and tolerability: vital signs, physical indexes, electrocardiogram
Procedure: Safety was evaluated based on the adverse events that occurred during the trial. Normal/abnormal changes in physical examination, vital signs, laboratory tests, electrocardiogram, and other results were evaluated before and after the trial.

[3] = Plasma pharmacokinetics of IBI351 parent drug (HPLC-MS/MS) after a single oral dose of [14C]IBI351; type: in vivo, human
Procedure: as §1, §2
Plasma, urine, and fecal samples were analyzed using high-performance liquid chromatography-tandem mass spectrometry (HPLC-MS/MS; ABSciex, Carlsbad, CA, USA) to determine the concentrations of IBI351. Samples containing stable isotope-labeled GF1927 (C32H27D3ClFN6O4, with a molecular weight of 620.10) as an internal standard were subjected to protein precipitation with acetonitrile and separated on a Waters Xbridge C18 column (3.5 μm, 50 mm × 2.1 mm; Waters, Milford, MA, USA) at 40 ℃. The mobile phase consisted of deionized water (with 0.1% formic acid) and acetonitrile (with 0.1% formic acid), delivered by gradient elution at 0.6 mL/min, and the gradient elution program was 30% phase B in 0–0.29 min, 80% phase B in 0.30–1.80 min, 30% phase B in 1.81–3.00 min. The detection was performed on a Triple Quad 6500+ tandem mass spectrometer in the positive ion electrospray ionization mode. Quantification was conducted by multiple reaction monitoring of the transitions m/z 617.3→358.2 for IBI351 and m/z 622.2→363.1 for internal standard, respectively. The calibration range for IBI351 in human plasma was 5–5000 ng/mL.
as §3

albumin = biological target: T1, albumin (Homo sapiens, UniProt P02768); assay: Covalent binding analysis of IBI351 in the plasma; type: in vitro ADME
T1 construct: from tissue; host or cells: plasma of healthy human male subjects
T1 sequence (P02768 25-609): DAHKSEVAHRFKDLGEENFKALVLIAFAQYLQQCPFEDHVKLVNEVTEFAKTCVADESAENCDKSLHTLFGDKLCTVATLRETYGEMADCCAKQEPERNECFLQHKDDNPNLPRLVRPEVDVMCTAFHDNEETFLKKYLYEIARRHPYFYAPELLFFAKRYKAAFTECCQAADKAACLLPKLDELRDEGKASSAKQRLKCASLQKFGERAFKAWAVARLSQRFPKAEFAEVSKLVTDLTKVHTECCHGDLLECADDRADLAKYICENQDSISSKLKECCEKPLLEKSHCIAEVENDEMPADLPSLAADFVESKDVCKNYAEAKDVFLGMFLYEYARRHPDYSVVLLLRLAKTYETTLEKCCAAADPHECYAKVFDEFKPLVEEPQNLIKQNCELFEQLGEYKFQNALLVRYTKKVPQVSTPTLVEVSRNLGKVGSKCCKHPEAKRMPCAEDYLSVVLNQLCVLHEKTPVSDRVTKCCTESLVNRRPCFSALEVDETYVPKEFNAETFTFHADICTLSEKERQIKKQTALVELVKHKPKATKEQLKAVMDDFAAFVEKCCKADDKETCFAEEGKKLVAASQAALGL

[4] = total plasma radioactivity, single oral 600 mg/150 μCi, n=6, mean±SD
[5] = D3, individual subjects, rows in order 01101–01106
[6] = D8, individual subjects, rows in order 01101–01106
[7] = follow-up visit, individual subjects, rows in order 01101–01106
[8] = single oral 600 mg/150 μCi, listed as [^14C]IBI351
[9] = IBI351 parent drug in plasma, single oral 600 mg/150 μCi, n=6, mean±SD

Compound: C=CC(=O)N1CCN2c3c(c(=O)n(-c4c(C)ccnc4C(C)C)c4nc(-c5c(O)cccc5F)c(Cl)cc34)N(C)C(=O)C2C1 (stereo not drawn) [IBI351]
- quantifiable time point ([1]; TRA in plasma): 456 h
- Tmax ([1]; total plasma radioactivity, n=6): 2.00 h and 2.00 (2.00, 4.00) h
- Tmax ([1]; total plasma radioactivity, n=6, listed as [^14C]IBI351): 2 h
- AUC0–inf [1, 4]: 4.69×10^5±1.10×10^5 h·ng Eq./mL
- AUC0–last [1, 4]: 4.33×10^5±1.04×10^5 h·ng Eq./mL
- CL/F [1, 4]: 1.32 ± 0.319 L/h
- Cmax [1, 4]: 7.26 × 10^3 (± 1.68 × 10^3) ng Eq./mL and 7.26×10^3±1.68×10^3 ng Eq./mL
- MRT0–last [1, 4]: 108 ± 4.20 h
- T1/2 [1, 4]: 129 (± 21.7) h and 129±21.7 h
- Vz/F [1, 4]: 242 ± 50.7 L
- T1/2 ([1]; total plasma radioactivity, single oral 600 mg/150 μCi, n=6, mean±SD, listed as [^14C]IBI351): 129 h
- Urea [2, 5]: 4.3 mmol/L and 4.9 mmol/L and 5.1 mmol/L and 4.5 mmol/L and 4.0 mmol/L and 5.5 mmol/L
- TBIL [2, 5]: 6.4 µmol/L and 12.2 µmol/L and 7.7 µmol/L and 10.0 µmol/L and 11.5 µmol/L and 10.4 µmol/L
- ALT ([2]; D3, individual subjects, 01101, 01102–01106): 11.4 U/L and 10.3 U/L and 11.0 U/L and 14.4 U/L and 29.0 U/L and 17.0 U/L
- GGT [2, 5]: 9.9 U/L and 17.1 U/L and 19.1 U/L and 33.0 U/L and 14.4 U/L and 20.1 U/L
- AST [2, 5]: 18.5 U/L and 11.5 U/L and 10.9 U/L and 16.4 U/L and 23.6 U/L and 19.0 U/L
- Cr [2, 5]: 73.1 µmol/L and 69.5 µmol/L and 66.4 µmol/L and 69.2 µmol/L and 76.5 µmol/L and 78.7 µmol/L
- Urea [2, 6]: 3.8 mmol/L and 5.4 mmol/L and 5.6 mmol/L and 4.2 mmol/L and 4.5 mmol/L and 5.1 mmol/L
- TBIL [2, 6]: 8.1 µmol/L and 14.2 µmol/L and 4.5 µmol/L and 8.0 µmol/L and 15.1 µmol/L and 13.5 µmol/L
- ALT [2, 6]: 18.3 U/L and 12.1 U/L and 10.5 U/L and 19.8 U/L and 30.9 U/L and 17.9 U/L
- GGT [2, 6]: 12.1 U/L and 25.8 U/L and 16.8 U/L and 33.8 U/L and 17.0 U/L and 19.2 U/L
- AST [2, 6]: 24.1 U/L and 14.2 U/L and 15.8 U/L and 15.2 U/L and 22.2 U/L and 17.7 U/L
- Cr [2, 6]: 69.6 µmol/L and 73.7 µmol/L and 64.2 µmol/L and 72.0 µmol/L and 76.4 µmol/L and 84.3 µmol/L
- Severity of TEAEs ([2]; all TEAEs, single oral 600 mg/150 μCi): grade 1
- Urea [2, 7]: 3.5 mmol/L and 3.8 mmol/L and 5.6 mmol/L and 4.7 mmol/L and 4.1 mmol/L and 6.1 mmol/L
- TBIL [2, 7]: 8.1 µmol/L and 12.3 µmol/L and 4.5 µmol/L and 7.0 µmol/L and 8.8 µmol/L
- ALT [2, 7]: 9.5 U/L and 20.5 U/L and 8.0 U/L and 19.4 U/L and 21.4 U/L and 14.7 U/L
- GGT [2, 7]: 13.4 U/L and 25.8 U/L and 22.0 U/L and 32.9 U/L and 16.9 U/L and 15.9 U/L
- AST [2, 7]: 15.7 U/L and 14.2 U/L and 16.9 U/L and 11.0 U/L and 19.4 U/L and 17.6 U/L
- Cr [2, 7]: 72.8 µmol/L and 73.1 µmol/L and 64.2 µmol/L and 71.4 µmol/L and 66.8 µmol/L and 92.4 µmol/L
- Subjects experiencing treatment-emergent adverse events (TEAEs) ([2]; four of six subjects, TEAEs unrelated to [14C]IBI351, single oral 600 mg/150 μCi): 66.7%
- TEAE: diarrhea ([2]; share of six subjects, grade 1): 33.3%
- TEAE: elevated blood triglycerides ([2]; share of six subjects, grade 1): 33.3%
- TEAE: positive fecal occult blood ([2]; share of six subjects, grade 1): 16.7%
- TEAEs leading to death ([2]; single oral 600 mg/150 μCi): no TEAEs leading to death
- Serious adverse events [2, 8]: no serious adverse events; also recorded: no severe adverse events
- TEAEs of CTCAE grade ≥ 3 [2, 8]: no TEAEs with Common Terminology Criteria for Adverse Events (CTCAE) grade ≥ 3; also recorded: no TEAEs of CTCAE grade ≥ 3
- Safety and tolerability ([2]; single oral 600 mg/150 μCi): generally safe and well tolerated
- Safety and tolerability [2, 8]: good safety and tolerance
- quantifiable time point ([3]; IBI351 parent drug in plasma): 168 h
- AUC0–last [3, 9]: 2.65×10^4±5.90×10^3 h·ng Eq./mL
- CL/F [3, 9]: 25.6 (± 5.56) L/h and 25.6±5.56 L/h
- Cmax [3, 9]: 3.90×10^3±8.02×10^2 ng Eq./mL
- Cmax ([3]; IBI351 parent drug in plasma, single oral 600 mg/150 μCi, n=6, mean±SD, listed as IB1351): 3.90 × 10^3 (± 8.02 × 10^2) ng Eq./mL
- Cmax ([3]; male, human, oral, 600 mg, IBI351 parent drug in plasma, read-out: mean Cmax): 3900 ng/mL
- CL renal ([3]; male, human, plasma, single oral 600 mg/150 μCi, read-out: renal clearance (converted)): 30.3 mL/min
- Tmax ([3]; male, human, IBI351 parent drug in plasma, single oral 600 mg/150 μCi, fasted, n=6, median (min, max)): 1 h
- half-life ([3]; male, human, IBI351 parent drug in plasma, single oral 600 mg/150 μCi, n=6, mean±SD): 17.4 ± 11.9 h
- MRT last ([3]; male, human, IBI351 parent drug in plasma, single oral 600 mg/150 μCi, n=6, mean±SD, read-out: MRT0–last): 8.24 ± 1.1 h
- Vd/F ([3]; male, human, IBI351 parent drug in plasma, single oral 600 mg/150 μCi, n=6, mean±SD, read-out: Vz/F): 581 ± 323 L
- covalent binding in the plasma (albumin): presence of covalent binding between IBI351 and albumin

Reference: PMC12329412, “Study of the mass balance, biotransformation, and safety of [^14C]IBI351 in healthy Chinese subjects” (Journal of Biomedical Research, 2024)
